Source: patent publication US20130060020A1, “Compounds useful for treating neurodegenerative disorders” (Satori Pharmaceuticals, Inc., priority 2011, published 2013)
Where two headings read alike, the source gives them in different places.

Tests used:
Assay type in all cases: cell-based
Aβ-42 = Aβ-42 MSD 3-plex ELISA, conditioned media of 2B7 cells; details: Homo sapiens, 5 hours treatment
Method: (§1) Assays were conducted to determine the ability of a Compound of Formula I to modulate […], and Aβ-38.
(§2) Plates with capture antibodies were blocked for 1-2 hours at room temperature with 150 μL of the manufactures blocking reagent.
(§3) Cultured 2B7 cells in 96 well plate with 250 μL of media per well until confluent;
(§4) Prepared serial dilutions of compounds in DMSO at 100× the final desired concentration;
(§5) Washed wells with 2B7 cells 1× with 250 μL of media;
(§6) Diluted DMSO stocks 1:100 into media: • Added 250 μL of media containing compounds (1% DMSO) to wells with 2B7 cells for 5 hours at 37° C.
(§7) ELISA Sample Prep: • Diluted conditioned media: 1 part media with 1% DMSO and 1 part blocking buffer; • 150 μL of the 250 μL of conditioned media were used.
(§8) Prepared per manufacturer's protocol (see above). • Seven point standard curve samples were prepared that contained Aβ-42, Aβ-40, and Aβ-38. The highest concentration of Aβ-42 and Aβ-38 was 3,000 pg/mL and the highest concentration of Aβ-40 was 10,000 pg/mL. Subsequent serial dilutions were 1:3 and the final composition of each sample was 1 part blocking buffer and 1 part cell medium containing 1% DMSO.
(§9) Overnight Sample Incubation: • Blocked plates are washed 5× with MSD wash buffer with a plate washer; • […] and blocker G reagent in MSD blocking solution was added; • 25 μL of samples (1 part conditioned media containing 1% DMSO and 1 part MSD blocking buffer) were then added; • Plates were incubated overnight at 4 degrees C. or 2 hours at room temperature.
(§10) Final Wash and Readout: • Washed wells 5× with MSD wash buffer; • Added 150 μL 2×MSD read buffer; • Read with MSD imager.
(§11) Aβ peptide levels for each peptide were calculated from the standard curve using the MSD software provided with the MSD 2400 Imager. Percent vehicle values for each compound dosage were then calculated and fit to a 4 parameter curve generating IC50 values.
(§12) Conditioned media from 2B7 cells (Mayo) was collected after 5 hours of treatment and diluted with 1 volume of Meso Scale Discovery (MSD, Gaithersburg Md.) blocking buffer (1% BSA in MSD wash buffer). For total Aβ measurements, standard-bind, multi-array single spot 96 well MSD ELISA plates were coated with unlabeled 4G8 capture antibody (Covance, Princeton, N.J.) overnight at 4° C. and then blocked with 5% BSA in MSD wash buffer for 1 hour at room temperature with orbital shaking Diluted 2B7 conditioned media were added to the blocked in-house total Aβ MSD plates with SULFO-TAG 6E10 antibody (MSD). For Aβ38, 40 and 42 measurements, diluted 2B7 conditioned media were added to blocked human (6E10) Aβ 3-Plex plates (MSD). Total Aβ and Aβ 3-Plex plates were incubated for 2 hours at room temperature with orbital shaking followed by washing and reading according to the manufacturer's instructions (SECTOR® Imager 2400, MSD). Aβ concentrations were converted to percent vehicle values and used to construct dose response curves which were fitted to […] using GraphPad Prism version 5.00 for Windows, GraphPad Software, San Diego Calif. USA.

Aβ-38 = Aβ-38 MSD 3-plex ELISA, conditioned media of 2B7 cells; details: Homo sapiens, 5 hours treatment, read-out: Aβ 38 IC50
Method: as §1, §2, §3, §4, §5, §6, §7, §8, §9, §10, §11, §12

Aβ-40 = Aβ-40 MSD 3-plex ELISA, conditioned media of 2B7 cells; details: Homo sapiens, 5 hours treatment
Method: as §1, §2, §3, §4, §5, §6, §7, §8, §9, §10, §11, §12

[1] = inflection of dose response curve, read-out: Aβ 42 DR IC50 Inflection

Compound | IC50 (Aβ-42; [1]) [nM] | IC50 (Aβ-42; read-out: Aβ 42 IC50) [nM] | IC50 (Aβ-38) [nM] | IC50 (Aβ-40; read-out: Aβ 40 IC50) [nM] | IC50 (Aβ-40; inflection of dose response curve, read-out: Aβ 40 DR IC50 Inflection) [nM]
CCO[C@@H]([C@H]1C[C@@H](C)[C@H]2[C@H](O1)[C@H](O)[C@@]1(C)[C@@H]3CC[C@H]4C(C)(C)[C@@H](O[C@H]5CN(CC6(O)CN(C)C6)CCO5)CC[C@@]45C[C@@]35CC[C@]21C)C(C)(C)O [Compound I-42] | < 100 | < 100 | 100 to 500 | 501 to 1000 | 
CCO[C@@H]([C@H]1C[C@@H](C)[C@H]2[C@H](O1)[C@H](O)[C@@]1(C)[C@@H]3CC[C@H]4C(C)(C)[C@@H](O[C@H]5CN(CC6(O)CN(C7CCC7)C6)CCO5)CC[C@@]45C[C@@]35CC[C@]21C)C(C)(C)O [Compound I-44] | < 100 | < 100 | 100 to 500 | 1000 to 5000 | 
CCO[C@@H]([C@H]1C[C@@H](C)[C@H]2[C@H](O1)[C@H](O)[C@@]1(C)[C@@H]3CC[C@H]4C(C)(C)[C@@H](O[C@H]5CN(CC6(O)CN(C7COC7)C6)CCO5)CC[C@@]45C[C@@]35CC[C@]21C)C(C)(C)O [Compound I-45] | 100 to 500 | 100 to 500 | 100 to 500 | 1000 to 5000 | 
CCO[C@@H]([C@H]1C[C@@H](C)[C@H]2[C@H](O1)[C@H](O)[C@@]1(C)[C@@H]3CC[C@H]4C(C)(C)[C@@H](O[C@H]5CN(CC6(O)CN(CCOC)C6)CCO5)CC[C@@]45C[C@@]35CC[C@]21C)C(C)(C)O [Compound I-46] | < 100 | < 100 | 100 to 500 | 501 to 1000 | 
CCO[C@@H]([C@H]1C[C@@H](C)[C@H]2[C@H](O1)[C@H](O)[C@@]1(C)[C@@H]3CC[C@H]4C(C)(C)[C@@H](O[C@H]5CN(CC6(O)CN(CC(C)(C)O)C6)CCO5)CC[C@@]45C[C@@]35CC[C@]21C)C(C)(C)O [Compound I-47] | 100 to 500 | 100 to 500 | 100 to 500 | 1000 to 5000 | 
CCO[C@@H]([C@H]1C[C@@H](C)[C@H]2[C@H](O1)[C@H](O)[C@@]1(C)[C@@H]3CC[C@H]4C(C)(C)[C@@H](O[C@H]5CN(CCN(C)C)CCO5)CC[C@@]45C[C@@]35CC[C@]21C)C(C)(C)O [Compound I-59] | 100 to 500 | 100 to 500 | 501 to 1000 | 1000 to 5000 | 
CCO[C@@H]([C@H]1C[C@@H](C)[C@H]2[C@H](O1)[C@H](O)[C@@]1(C)[C@@H]3CC[C@H]4C(C)(C)[C@@H](O[C@H]5CN(CCN6CC(OC)C6)CCO5)CC[C@@]45C[C@@]35CC[C@]21C)C(C)(C)O [Compound I-62] | 100 to 500 | 100 to 500 | 501 to 1000 | 1000 to 5000 | 
CCO[C@@H]([C@H]1C[C@@H](C)[C@H]2[C@H](O1)[C@H](O)[C@@]1(C)[C@@H]3CC[C@H]4C(C)(C)[C@@H](O[C@H]5CN(CCN6CC(F)C6)CCO5)CC[C@@]45C[C@@]35CC[C@]21C)C(C)(C)O [Compound I-63] | 100 to 500 | 100 to 500 | 501 to 1000 | 1000 to 5000 | 1000 to 5000
CCO[C@@H]([C@H]1C[C@@H](C)[C@H]2[C@H](O1)[C@H](O)[C@@]1(C)[C@@H]3CC[C@H]4C(C)(C)[C@@H](O[C@H]5CN(CC6(O)CN(CCO)C6)CCO5)CC[C@@]45C[C@@]35CC[C@]21C)C(C)(C)O [Compound I-69] | < 100 | < 100 | 100 to 500 | 501 to 1000 | 
CCO[C@@H]([C@H]1C[C@@H](C)[C@H]2[C@H](O1)[C@H](O)[C@@]1(C)[C@@H]3CC[C@H]4C(C)(C)[C@@H](O[C@H]5CN(CC6CN(C(CO)CO)C6)CCO5)CC[C@@]45C[C@@]35CC[C@]21C)C(C)(C)O [Compound I-73] | 100 to 500 | 100 to 500 | 100 to 500 | 1000 to 5000 | 
